Results reported in paper PMC5664514 (Proceedings of the National Academy of Sciences of the …, 2017).

Experiments:
ADAM10 = conditions: via HDAC2/3 mechanism involving USF-1; cited from earlier work
HEK/APPsw cells [1] = experiment: CellTiter-Glo luminescent cell viability assay; type: cell-based; conditions: 10 μM, 48 h
BDNF [2] = conditions: cited from earlier work
Tg2576 AD mice [3] = conditions: 25 mg/kg and 50 mg/kg; cited from earlier work
aged APP/PS1 mice = conditions: 50 mg/kg i.p.; cited from earlier work
APP-PS1-21 AD mice = conditions: 2 mg/d orally, 10-mo-old mice; cited from earlier work
HEK/APPsw cells [4] = experiment: Western blot of APP metabolites, ADAM10, BACE1, BDNF in HEK/APPsw cells; type: cell-based, human; conditions: 10 μM, vs DMSO
BDNF [5] = conditions: 0.8–5 mM; cited from earlier work
Tg2576 AD mice [6] = conditions: 200 mg/kg; cited from earlier work

Compound: CCC(=O)CCCCC[C@@H]1NC(=O)[C@H]2CCCCN2C(=O)[C@H]([C@@H](C)CC)NC(=O)[C@H](Cc2cn(OC)c3ccccc23)NC1=O [apicidin]
- ADAM10 expression (ADAM10): up-regulating the expression of ADAM10

Compound: O=C(CCCCCCC(=O)Nc1ccccc1)NO [SAHA, suberoylanilide hydroxamic acid]
- cell viability (HEK/APPsw cells [1]): significantly reduce cell viability
- BDNF gene expression (BDNF [2]): increase BDNF gene expression
- fear conditioning behavior (Tg2576 AD mice [3]): not behaviorally
- synaptic plasticity (long-term potentiation) (Tg2576 AD mice [3]): positive effects on synaptic plasticity
- cognitive behavior (aged APP/PS1 mice): improvement of cognitive behavior
- Aβ plaques (APP-PS1-21 AD mice): no significant differences
- H4K12 acetylation (APP-PS1-21 AD mice): increased H4K12 acetylation
- spatial memory (APP-PS1-21 AD mice): partial improvement of spatial memory

Compound: O=C(/C=C/C#Cc1cccc(NS(=O)(=O)c2ccccc2)c1)NO [oxamflatin]
- cell viability (HEK/APPsw cells [1]): significantly reduce cell viability

Compound: C=C(C)[C@@H](CC=C(C)C)C[C@@]12C[C@@H](CC=C(C)C)C(C)(C)[C@@](CC=C(C)C)(C(=O)C(C(=O)c3ccc(O)c(O)c3)=C1O)C2=O [garcinol]
- BACE1 protein level, change (Western blot) (HEK/APPsw cells [4]): 54.3%
- mature APP, change (Western blot) (HEK/APPsw cells [4]): 37.9%
- sAPPα, change (Western blot) (HEK/APPsw cells [4]): −33.6%

Compound: CC(O)CC(=O)O (stereo not drawn) [β-hydroxybutyrate]
- BDNF expression (BDNF [5]): increase BDNF expression

Compound: O=C([O-])CCCc1ccccc1.[Na+] [sodium 4-phenylbutyrate]
- memory (Tg2576 AD mice [6]): positive effects on memory
